Measured values reported in patent publication US20260325417A1, “TOPICAL SKIN COMPOSITION CONTAINING 1,3-PROPANEDIOL AS ACTIVE INGREDIENT FOR MAINTAINING MICROBIOME BALANCE IN SKIN” (ACTIVON CO.,LTD., priority 2022, published 2026).

Columns and labels:
[1] = system: Staphylococcus aureus ATCC 6538; assay: Growth of harmful skin bacteria, single culture with 1,3-propanediol (absorbance 600 nm); format: cell-based; conditions: for Effect on the growth of harmful bacteria (S. aureus): absorbance 600 nm, 2 to 16 hours vs control
Method: (§1) • 1) Staphylococcus epidermidis ATCC 12228 and Staphylococcus aureus ATCC 6538 strains were obtained from ThermoFisher Scientific and cultured in tryptic soy broth (culture conditions: 32° C. for 18 hours). After culturing, they were diluted with 0.85% NaCl to adjust the absorbance (600 nm) to 0.5-0.6. • 2) 1,3-propanediol was obtained from Sigma-Aldrich. • 3) 2-methyl-1,3-propanediol, 1,3-butanediol, 2,3-butanediol, 1,2-pentanediol, and 1,2-hexanediol were all obtained from Sigma-Aldrich. • 4) Fructan was obtained from Sigma-Aldrich. • 5) Yeast extract was obtained from Sigma-Aldrich.
The effect of 1,3-propanediol on the growth of Staphylococcus aureus ATCC 6538 was analyzed.
(§2) For this purpose, 1,3-propanediol was diluted with 10% tryptic soy broth to prepare concentrations of 0.05, 0.1, 0.2, 0.5, 1.0, 3.0, 5.0, 10, 20, and 25 wt %.
After adding 1,3-propanediol prepared at each concentration to 10% tryptic soy broth, S. aureus was inoculated to achieve a concentration of 1% (v/v).
(§3) Afterwards, the cells were cultured at a temperature of 32° C. for 24 hours, and the absorbance (600 nm) was measured at 2-hour intervals to analyze the growth of beneficial skin bacteria.
(§4) At this time, 10% tryptic soy broth to which 1,3-propanediol was not added was set as a control group.
The criteria for determining the effect on the growth of harmful bacteria were as follows: when the absorbance (600 nm) was measured while culturing for 2 to 16 hours after inoculation of S. aureus, if the absorbance was lower than that of 10% tryptic soy broth (control group) to which 1,3-propanediol was not added, it was determined that the growth of S. aureus was inhibited. If there was no difference in absorbance, it was determined that there was no effect.

S. epidermidis [2] = assay: Comparison of diol compounds, growth of beneficial bacteria; format: cell-based, Staphylococcus epidermidis; parameters: key to Effect on the growth of beneficial bacteria (S. epidermidis): ++: Growth promotion; +: No effect; −: Growth inhibition; − −: 50% or more growth inhibition
From the text: (§5) FIG. 4 illustrates the results of a comparative analysis of the effects of diol compounds, specifically 1,3-propanediol, 2-methyl-1,3-propanediol, 1,3-butanediol, 2,3-butanediol, 1,2-pentanediol, and 1,2-hexanediol on the growth of harmful bacteria (upper graph) and beneficial bacteria (lower graph). FIG. 4A: 1,3-propanediol, FIG. 4B: 2-methyl-1,3-propanediol; FIG. 4C: 1,3-butanediol; FIG. 4D: 2,3-butanediol; FIG. 4E: 1,2-pentanediol; FIG. 4F: 1,2-Hexanediol.
as §1

[3] = system: Staphylococcus aureus ATCC 6538; assay: Combination of 1,3-propanediol and fructan, growth of harmful bacteria; format: cell-based; conditions: 1,3-propanediol 1.5 wt %; fructan 0.00 wt %
Method: as §1
(§6) In order to evaluate the effect of 1,3-propanediol and fructan on the skin microbiome, the effect on the growth rate of Staphylococcus epidermidis ATCC 12228, a representative beneficial skin bacterium, and Staphylococcus aureus ATCC 6538, a harmful skin bacterium, was confirmed. Staphylococcus epidermidis ATCC 12228 and Staphylococcus aureus ATCC 6538 were cultured in tryptic soy broth at 32° C. for 18 hours or more, then diluted with 0.85% NaCl and adjusted to have an absorbance (600 nm) of 0.5 to 0.6.
(§7) S. epidermidis and S. aureus prepared above were inoculated to achieve a concentration of 1% (v/v) in 10% tryptic soy broth to which 1,3-propanediol was added at a fixed concentration of 1.5 wt % and fructan was added at each concentration in the table below. […]

S. epidermidis [4] = assay: Combination of 1,3-propanediol and yeast extract, growth of beneficial bacteria; format: cell-based, Staphylococcus epidermidis; conditions: 1,3-propanediol 1.5 wt %; yeast extract 0.00 wt %
S. aureus [5] = assay: Comparison of diol compounds, growth of harmful bacteria; format: cell-based, Staphylococcus aureus
From the text: as §5, §1

[6] = system: Staphylococcus epidermidis ATCC 12228; assay: Combination of 1,3-propanediol and fructan, growth of beneficial bacteria; format: cell-based; conditions: 1,3-propanediol 1.5 wt %; fructan 0.00 wt %
Method: as §1, §6, §7

S. aureus [7] = assay: Combination of 1,3-propanediol and yeast extract, growth of harmful bacteria; format: cell-based, Staphylococcus aureus; conditions: 1,3-propanediol 1.5 wt %; yeast extract 0.00 wt %
Method: as §1, §6, §7

[8] = system: Staphylococcus epidermidis ATCC 12228; assay: Growth of beneficial skin bacteria, single culture with 1,3-propanediol (absorbance 600 nm); format: cell-based; conditions: for Effect on the growth of beneficial bacteria (S. epidermidis): absorbance 600 nm, 2 to 16 hours vs control
Method: as §1
The effect of 1,3-propanediol on the growth of Staphylococcus epidermidis ATCC 12228 was analyzed.
as §2
After adding the prepared 1,3-propanediol at each concentration to 10% tryptic soy broth, S. epidermidis was inoculated to achieve a concentration of 1% (v/v).
as §3, §4
The criteria for determining the effect on the growth of beneficial bacteria were as follows: when the absorbance (600 nm) was measured while culturing for 2 to 16 hours after inoculation of S. epidermidis, if the absorbance was higher than that of 10% tryptic soy broth (control group) to which 1,3-propanediol was not added, it was determined that the growth of S. epidermidis was promoted. If there was no difference, it was determined that there was no effect, and if the absorbance was lower, it was determined that there was inhibition. […] As a result, it can be seen that when the concentration of 1,3-propanediol is in a specific range exceeding 0.05 wt % and less than 20 wt %, it promotes the growth of S. epidermidis.

[9] = when the concentration increases

OCCCO [1,3-propanediol]
Effect on the growth of harmful bacteria (S. aureus) ([1]; 0.05 wt %): No effect
Effect on the growth of harmful bacteria (S. aureus) ([1]; 0.1 wt %): No effect
Effect on the growth of harmful bacteria (S. aureus) ([1]; 0.2 wt %): No effect
Effect on the growth of harmful bacteria (S. aureus) ([1]; 0.5 wt %): No effect
Effect on the growth of harmful bacteria (S. aureus) ([1]; 1.0 wt %): No effect
Effect on the growth of harmful bacteria (S. aureus) ([1]; 3.0 wt %): Inhibited
Effect on the growth of harmful bacteria (S. aureus) ([1]; 5.0 wt %): Inhibited
Effect on the growth of harmful bacteria (S. aureus) ([1]; 10 wt %): Inhibited
Effect on the growth of harmful bacteria (S. aureus) ([1]; 20 wt %): Inhibited
Effect on the growth of harmful bacteria (S. aureus) ([1]; 25 wt %): Inhibited
Concentration that did not inhibit the growth of S. aureus ([1]; single culture): ≤ 1.0 wt %
Effect on the growth of beneficial bacteria (S. epidermidis) (S. epidermidis [2]; diol compound 0.1 wt %): ++
Effect on the growth of beneficial bacteria (S. epidermidis) (S. epidermidis [2]; diol compound 1 wt %): ++
Effect on the growth of beneficial bacteria (S. epidermidis) (S. epidermidis [2]; diol compound 5 wt %): +
Effect on the growth of beneficial bacteria (S. epidermidis) (S. epidermidis [2]; diol compound 10 wt %): +
Effect on the growth of beneficial bacteria (S. epidermidis) (S. epidermidis [2]; diol compound 20 wt %): +
Growth of beneficial bacteria (summary) (S. epidermidis [2]; [9]): the growth of beneficial bacteria is promoted
Effect on the growth of harmful bacteria (S. aureus) [3]: ++ (Significant growth inhibition (change in absorbance (decrease) 5%))
Effect on the growth of beneficial bacteria (S. epidermidis) (S. epidermidis [4]): + (Mild growth promotion (change in absorbance (increase) 3%))
Effect on the growth of harmful bacteria (S. aureus) (S. aureus [5]; diol compound 0.1 wt %): ++
Effect on the growth of harmful bacteria (S. aureus) (S. aureus [5]; diol compound 1 wt %): ++
Effect on the growth of harmful bacteria (S. aureus) (S. aureus [5]; diol compound 5 wt %): +++ (50% or more inhibition)
Effect on the growth of harmful bacteria (S. aureus) (S. aureus [5]; diol compound 10 wt %): +++ (50% or more inhibition)
Effect on the growth of harmful bacteria (S. aureus) (S. aureus [5]; diol compound 20 wt %): +++ (50% or more inhibition)
Growth of harmful bacteria (summary) (S. aureus [5]; [9]): the growth of harmful bacteria is inhibited
Effect on the growth of beneficial bacteria (S. epidermidis) [6]: + (Mild growth promotion (change in absorbance (increase) 3%))
Effect on the growth of harmful bacteria (S. aureus) (S. aureus [7]): ++ (Significant growth inhibition (change in absorbance (decrease) 5%))
Effect on the growth of beneficial bacteria (S. epidermidis) ([8]; 0.05 wt %): No effect
Effect on the growth of beneficial bacteria (S. epidermidis) ([8]; 0.1 wt %): Promoted
Effect on the growth of beneficial bacteria (S. epidermidis) ([8]; 0.2 wt %): Promoted
Effect on the growth of beneficial bacteria (S. epidermidis) ([8]; 0.5 wt %): Promoted
Effect on the growth of beneficial bacteria (S. epidermidis) ([8]; 1.0 wt %): Promoted
Effect on the growth of beneficial bacteria (S. epidermidis) ([8]; 3.0 wt %): Promoted
Effect on the growth of beneficial bacteria (S. epidermidis) ([8]; 5.0 wt %): Promoted
Effect on the growth of beneficial bacteria (S. epidermidis) ([8]; 10 wt %): Promoted
Effect on the growth of beneficial bacteria (S. epidermidis) ([8]; 20 wt %): No effect
Effect on the growth of beneficial bacteria (S. epidermidis) ([8]; 25 wt %): Inhibited
Concentration that inhibited the growth of S. epidermidis ([8]; single culture): exceeded 25 wt %

CC(O)C(C)O (stereo not shown) [2,3-butanediol]
Effect on the growth of beneficial bacteria (S. epidermidis) (S. epidermidis [2]; diol compound 0.1 wt %): ++
Effect on the growth of beneficial bacteria (S. epidermidis) (S. epidermidis [2]; diol compound 1 wt %): −
Effect on the growth of beneficial bacteria (S. epidermidis) (S. epidermidis [2]; diol compound 5 wt %): − − (50% or more growth inhibition)
Effect on the growth of beneficial bacteria (S. epidermidis) (S. epidermidis [2]; diol compound 10 wt %): − − (50% or more growth inhibition)
Effect on the growth of beneficial bacteria (S. epidermidis) (S. epidermidis [2]; diol compound 20 wt %): − − (50% or more growth inhibition)
Effect on the growth of harmful bacteria (S. aureus) (S. aureus [5]; diol compound 0.1 wt %): +
Effect on the growth of harmful bacteria (S. aureus) (S. aureus [5]; diol compound 1 wt %): +
Effect on the growth of harmful bacteria (S. aureus) (S. aureus [5]; diol compound 5 wt %): ++
Effect on the growth of harmful bacteria (S. aureus) (S. aureus [5]; diol compound 10 wt %): +++ (50% or more inhibition)
Effect on the growth of harmful bacteria (S. aureus) (S. aureus [5]; diol compound 20 wt %): +++ (50% or more inhibition)

CC(CO)CO [2-methyl-1,3-propanediol]
Effect on the growth of beneficial bacteria (S. epidermidis) (S. epidermidis [2]; diol compound 0.1 wt %): +
Effect on the growth of beneficial bacteria (S. epidermidis) (S. epidermidis [2]; diol compound 1 wt %): +
Effect on the growth of beneficial bacteria (S. epidermidis) (S. epidermidis [2]; diol compound 5 wt %): −
Effect on the growth of beneficial bacteria (S. epidermidis) (S. epidermidis [2]; diol compound 10 wt %): − − (50% or more growth inhibition)
Effect on the growth of beneficial bacteria (S. epidermidis) (S. epidermidis [2]; diol compound 20 wt %): − − (50% or more growth inhibition)
Effect on the growth of harmful bacteria (S. aureus) (S. aureus [5]; diol compound 0.1 wt %): +
Effect on the growth of harmful bacteria (S. aureus) (S. aureus [5]; diol compound 1 wt %): +
Effect on the growth of harmful bacteria (S. aureus) (S. aureus [5]; diol compound 5 wt %): ++
Effect on the growth of harmful bacteria (S. aureus) (S. aureus [5]; diol compound 10 wt %): +++ (50% or more inhibition)
Effect on the growth of harmful bacteria (S. aureus) (S. aureus [5]; diol compound 20 wt %): +++ (50% or more inhibition)
